Laboratory results published in ChEMBL document CHEMBL4840329, “Antibiotic Dixiamycins from a Cold-Seep-Derived Streptomyces olivaceus” (2021).
≈ marks a conversion by molar mass, not a printed value.

Experiments:
[1] = test system: Staphylococcus aureus; assay: Anti-MDR bacterial activity against Staphylococcus aureus CCARM 3090 assessed as inhibition of bacterial growth incubated for 18 hrs by microplate reader analysis; assay type: functional
[2] = test system: Enterococcus faecalis; assay: Anti-MDR bacterial activity against Enterococcus faecalis CCARM 5172 assessed as inhibition of bacterial growth incubated for 18 hrs by microplate reader analysis; assay type: functional
[3] = test system: Enterococcus faecium; assay: Anti-MDR bacterial activity against Enterococcus faecium CCARM 5203 assessed as inhibition of bacterial growth incubated for 18 hrs by microplate reader analysis; assay type: functional
[4] = test system: Micrococcus luteus; assay: Anti-MDR bacterial activity against Micrococcus luteus ML01 assessed as inhibition of bacterial growth incubated for 18 hrs by microplate reader analysis; assay type: functional
[5] = test system: Pseudomonas aeruginosa; assay: Anti-MDR bacterial activity against Pseudomonas aeruginosa 15690 assessed as inhibition of bacterial growth incubated for 18 hrs by microplate reader analysis; assay type: functional
[6] = test system: Escherichia coli; assay: Anti-MDR bacterial activity against Escherichia coli CCARM 1009 assessed as inhibition of bacterial growth incubated for 18 hrs by microplate reader analysis; assay type: functional
[7] = test system: Salmonella typhimurium; assay: Anti-MDR bacterial activity against Salmonella typhimurium CCARM 8250 assessed as inhibition of bacterial growth incubated for 18 hrs by microplate reader analysis; assay type: functional, Salmonella enterica subsp. enterica serovar Typhimurium; conditions: Salmonella enterica
[8] = Staphylococcus aureus, CCARM 3090, 18 h, read-out: MIC
[9] = Enterococcus faecalis, CCARM 5172, 18 h, read-out: MIC
[10] = Enterococcus faecium, CCARM 5203, 18 h, read-out: MIC
[11] = Micrococcus luteus, ML01, 18 h, read-out: MIC
[12] = Pseudomonas aeruginosa, 15690, 18 h, read-out: MIC

MIC [1, 8]	MIC [2, 9]	MIC [3, 10]	MIC [4, 11]	MIC [5, 12]	MIC [6]	MIC [7]	MIC ([1]; 18 h)	MIC ([3]; 18 h)	MIC ([5]; 18 h)	MIC ([2]; 18 h)	MIC ([4]; 18 h)	MIC [4]	MIC [5]	Compound	MIC ([1]; Staphylococcus aureus, CCARM 3090, read-out: MIC)
0.78 µg/mL (≈ 1.08 µM)	3.12 µg/mL (≈ 4.3 µM)	1.56 µg/mL (≈ 2.15 µM)	3.12 µg/mL (≈ 4.3 µM)	0.78 µg/mL (≈ 1.08 µM)	> 12.5 µg/mL	> 12.5 µg/mL								C[C@@]1(C(=O)O)[C@@H](O)CC[C@]2(C)c3cc4c(cc3CC[C@@H]12)[nH]c1ccc(-n2c3ccccc3c3cc5c(cc32)CC[C@H]2[C@](C)(C(=O)O)[C@@H](O)CC[C@]52C)cc14	
6.25 µg/mL (≈ 8.62 µM)	> 12.5 µg/mL	12.5 µg/mL (≈ 17.2 µM)	> 12.5 µg/mL	6.25 µg/mL (≈ 8.62 µM)	> 12.5 µg/mL	> 12.5 µg/mL								C[C@@]1(C(=O)O)[C@@H](O)CC[C@]2(C)c3cc4c5ccccc5n(-c5c6c(cc7c5[nH]c5ccccc57)[C@@]5(C)CC[C@H](O)[C@@](C)(C(=O)O)[C@@H]5CC6)c4cc3CC[C@@H]12 (stereo in doubt; 3)	
							>12.5 µg/mL	>12.5 µg/mL	>12.5 µg/mL					C[C@@]1(C(=O)O)[C@@H](O)CC[C@]2(C)c3cc4c5ccccc5n(-c5c6c(cc7c5[nH]c5ccccc57)[C@@]5(C)CC[C@H](O)[C@@](C)(C(=O)O)[C@@H]5CC6)c4cc3CC[C@@H]12 (stereo in doubt; 4)	
				1.56 µg/mL (≈ 2.15 µM)	> 12.5 µg/mL	> 12.5 µg/mL	3.12 µg/mL (≈ 4.3 µM)	6.25 µg/mL (≈ 8.62 µM)		6.25 µg/mL (≈ 8.62 µM)	6.25 µg/mL (≈ 8.62 µM)			C[C@@]1(C(=O)O)[C@@H](O)CC[C@]2(C)c3cc4c(cc3CC[C@@H]12)[nH]c1c(-n2c3ccccc3c3cc5c(cc32)CC[C@H]2[C@](C)(C(=O)O)[C@@H](O)CC[C@]52C)cccc14 (stereo in doubt; 1)	
							1.56 µg/mL (≈ 2.15 µM)	1.56 µg/mL (≈ 2.15 µM)	0.78 µg/mL (≈ 1.08 µM)	1.56 µg/mL (≈ 2.15 µM)		6.25 µg/mL (≈ 8.62 µM)		C[C@@]1(C(=O)O)[C@@H](O)CC[C@]2(C)c3cc4c5ccccc5n(-n5c6ccccc6c6cc7c(cc65)CC[C@H]5[C@](C)(C(=O)O)[C@@H](O)CC[C@]75C)c4cc3CC[C@@H]12 (stereo in doubt; 6)	
12.5 µg/mL (≈ 15.8 µM)	> 12.5 µg/mL	6.25 µg/mL (≈ 7.92 µM)	> 12.5 µg/mL	> 12.5 µg/mL	> 12.5 µg/mL	> 12.5 µg/mL								C[C@@]1(C(=O)O)[C@@H](O)CC[C@]2(C)c3cc4c(cc3CC[C@@H]12)[nH]c1ccc(S(=O)(=O)c2c3c(cc5c2[nH]c2ccccc25)[C@@]2(C)CC[C@H](O)[C@@](C)(C(=O)O)[C@@H]2CC3)cc14	
							0.78 µg/mL (≈ 1.08 µM)	3.12 µg/mL (≈ 4.3 µM)		3.12 µg/mL (≈ 4.3 µM)	3.12 µg/mL (≈ 4.3 µM)		1.56 µg/mL (≈ 2.15 µM)	C[C@@]1(C(=O)O)[C@@H](O)CC[C@]2(C)c3cc4c(cc3CC[C@@H]12)[nH]c1c(-n2c3ccccc3c3cc5c(cc32)CC[C@H]2[C@](C)(C(=O)O)[C@@H](O)CC[C@]52C)cccc14 (stereo in doubt; 2)	
3.12 µg/mL (≈ 4.3 µM)		3.12 µg/mL (≈ 4.3 µM)	6.25 µg/mL (≈ 8.62 µM)		> 12.5 µg/mL	> 12.5 µg/mL			3.12 µg/mL (≈ 4.3 µM)	6.25 µg/mL (≈ 8.62 µM)				C[C@@]1(C(=O)O)[C@@H](O)CC[C@]2(C)c3cc4c5ccccc5n(-n5c6ccccc6c6cc7c(cc65)CC[C@H]5[C@](C)(C(=O)O)[C@@H](O)CC[C@]75C)c4cc3CC[C@@H]12 (stereo in doubt; 5)	

Compound	MIC [1, 8]	MIC [2, 9]	MIC [3, 10]	MIC [4, 11]	MIC [5, 12]	MIC [6]	MIC [7]	MIC ([1]; 18 h)	MIC ([3]; 18 h)	MIC ([5]; 18 h)	MIC ([2]; 18 h)	MIC ([4]; 18 h)	MIC [4]	MIC [5]	MIC ([1]; Staphylococcus aureus, CCARM 3090, read-out: MIC)
CN(C)[C@@H]1C(O)=C(C(N)=O)C(=O)[C@@]2(O)C(O)=C3C(=O)c4c(O)cccc4[C@@](C)(O)[C@H]3C[C@@H]12 [TETRACYCLINE]		> 25 µg/mL	1.56 µg/mL (≈ 3.51 µM)	6.25 µg/mL (≈ 14.1 µM)	12.5 µg/mL (≈ 28.1 µM)	1.56 µg/mL (≈ 3.51 µM)	> 25 µg/mL								6.25 µg/mL (≈ 14.1 µM)
